From US8299223B2, “Pseudoglycolipid and use thereof” (Riken, priority 2007, dated 2012) come the findings set out here.

In one assay the test system is B16 melanoma. Put plainly: Experimental Example 2: anti-liver metastasis effect, survival after intrasplenic transfer of B16 melanoma. It counts as in vivo, mouse. The following applies: FIG. 3. Here is the method: The following experiment was performed for the anti-liver metastasis effect.
The left side of mouse was opened under anesthesia, and the spleen was exposed. 1×10^6 B16 melanoma was intrasplenically transferred using a 1 mL syringe (TERUMO CORPORATION), maintained for 30 sec, and the blood vessel was sutured. The spleen was isolated and the peritoneal membrane was sutured with a surgical thread (No. 4, Alfresa Pharma Corporation), and the outer skin was joined with a surgical clip. After 3 hr from the cell transfer, α-GalCer and compound 11′ were administered each in an amount of 2, 0.2 or 0.02 μg per mouse from the tail vein and the survival rate of each group was examined.

Assay [1] has as its system IFN-γ. Put plainly: Experimental Example 3: human NKT cell proliferation and IFN-γ production induction, dendritic cells plus peripheral blood mononuclear cells, IFN-γ in culture supernatant. It counts as cell-based. The following applies: as compared to α-GalCer and α-C-GalCer; for IFN-γ concentration of the culture supernatants: 3 days and 8 days later, FIG. 4 (a), (b); for selectivity of IFN-γ production induction: IFN-γ versus IL-4, FIG. 4 (a)-(d). The procedure:
(§1) The following experiment was performed for human NKT cell proliferation and IFN-γ production induction.
(§2) Monocytes were prepared from the peripheral blood of a healthy subject by anti-CD14 microbeads (Miltenyi Biotech), and dendritic cells were induced using GM-CSF and IL-4 (Peprotech). To the dendritic cells was added α-GalCer or synthetic glycolipid (α-C-GalCer, compound 11′, compound 51′), human peripheral blood mononuclear cell was added and the cells were cultured.
In this experiment, the IFN-γ concentration of the culture supernatants 3 days and 8 days later was measured. As a result, the concentration was very high when stimulated with compound 11′ and compound 51′ as compared to α-GalCer and α-C-GalCer (FIG. 4 (a), (b)).

Assay [2] deals with IFN-γ. Put plainly: Experimental Example 1: IFN-γ content of plasma after intraperitoneal injection in C57BL/6 mouse (Cytometric bead array). The following applies: intraperitoneal 100, 10 or 1 μg/kg body weight, plasma 6, 12, 24, 36 and 48 hr after administration, FIG. 1. In kind it is in vivo. The procedure:
(§3) Compound 11′ was dissolved in […] saline (manufactured by OTSUKA PHARMACEUTICAL CO., LTD) containing Tween 20 (Bio-Rad) and prepared to a dose of 100 μg/kg body weight, 10 μg/kg body weight or 1 μg/kg body weight C57BL/6 mouse (5 per group), and the compound 11′ solution (200 μL) was intraperitoneally injected.
(§4) α-GalCer was used as a control substance, and 200 μL of each α-GalCer solution prepared to a dose of 100 μg/kg body weight, 10 μg/kg body weight or 1 μg/kg body weight according to a similar method was intraperitoneally injected.
(§5) A group administered with a medium (200 μL of saline containing 0.5% Tween 20) was taken as a negative control. The blood (80 μL) was taken from the orbital plexus venosus immediately before administration and 3, 6, 12, 24, 36 and 48 hr after administration, and the plasma was prepared. The IL-4 content of plasma immediately before administration and 3, 6 and 12 hr after administration, as well as IFN-γ content of plasma immediately before administration and 6, 12, 24, 36 and 48 hr after administration were measured by Cytometric bead array system (BD Biosciences), which is one kind of the ELISA method. The measurement results of IFN-γ production amount are shown FIG. 1 and the measurement results of IL-4 production amount are shown in FIG. 2.

The subject of assay [3] is IL-4. Put plainly: Experimental Example 3: dendritic cells plus human peripheral blood mononuclear cells, IL-4 in culture supernatant. In kind it is cell-based. The following applies: culture supernatants; as compared to α-GalCer and α-C-GalCer; FIG. 4. Here is the method:
as §1, §2

Assay [4] deals with IL-4. Put plainly: Experimental Example 1: IL-4 content of plasma after intraperitoneal injection in C57BL/6 mouse (Cytometric bead array). It counts as in vivo. The following applies: intraperitoneal 100, 10 or 1 μg/kg body weight, plasma 3, 6 and 12 hr after administration, FIG. 2. Here is the method:
as §3, §4, §5

As to `CCCCCCCCCCCCCCCCCCCCCCCCCC(=O)N[C@@H](CO[C@H]1CC(CO)[C@H](O)C(O)C1O)[C@H](O)[C@H](O)CCCCCCCCCCCCCC` (stereo partly drawn) [compound 11′, (2S,3S,4R)-1-(5a-carba-α-D-galactopyranosyloxy)-2-(hexacosanoylamino)-3,4-octadecanediol], the survival period result in the assay on B16 melanoma (2, 0.2 or 0.02 μg per mouse from the tail vein 3 hr after cell transfer, as compared to the non-treatment group and the α-GalCer administration group) is “extended”; in the assay with B16 melanoma (administration of 0.2 and 0.02 μg per mouse, as compared to the α-GalCer administration group), “remarkable elongated”. Also, the “IFN-γ concentration of the culture supernatants” value in the assay with IFN-γ [1] is “very high”. Moreover, the “selectivity of IFN-γ production induction” value with IFN-γ [1] is recorded as “selectively induced IFN-γ production”. The IFN-γ production amount entry with IFN-γ [2] is given as “preferentially produced IFN-γ”. The IL-4 concentration result with IL-4 [3] is “almost the same”. Besides, in the assay on IL-4 [4], the IL-4 production amount entry was “in a small amount”.
On to `CCCCCCCCCCCCCCCCCCCCCCCCCC(=O)N[C@@H](CO[C@H]1C[C@H](C)[C@H](O)[C@H](O)[C@H]1O)[C@H](O)[C@H](O)CCCCCCCCCCCCCC` [compound 51′, (2S,3S,4R)-1-(5a-carba-α-D-fucopyranosyloxy)-2-(hexacosanoylamino)-3,4-octadecanediol], for which, in the assay with IFN-γ [1], the “IFN-γ concentration of the culture supernatants” value is listed as “very high” and the “selectivity of IFN-γ production induction” value is on record as “selectively induced IFN-γ production”. Moreover, in the assay with IL-4 [3], the IL-4 concentration result was “almost the same”.
As to `CCCCCCCCCCCCCCCCCCCCCCCCCC(=O)N[C@@H](COC1OC(CO)C(O)C(O)C1O)[C@H](O)[C@H](O)CCCCCCCCCCCCCC` (stereo partly drawn) [α-GalCer, α-galactosylceramide, reference compound], the IFN-γ production amount entry with IFN-γ [2] is recorded as “in large amounts”. For the same molecule, the IL-4 production amount entry in the assay with IL-4 [4] is listed as “in large amounts”.
